Broadly, the EC50 is the midpoint of the concentration-response curve.

The source of these data is patent US7507716B2, “Method for treating pain with prolactin antagonists” (Board of Regents, The University of Texas System, priority 2005, dated 2009).

Data set [1] has as its system gene expression in trigeminal ganglia. Put plainly: Affymetrix microarray of trigeminal ganglia RNA after estradiol administration. It is filed as in vivo, rat. Conditions: OVX rats, estradiol 80 μg/kg/10 days versus vehicle. How it is done: At the end of the 10th day, animals were used for behavioral experiments or sacrificed by decapitation and the TG of each individual animal were harvested. Harvested tissue was used for RNA isolation, total protein isolation, or for preparing primary cultures of TG neurons.
The ground tissue was used to isolate total RNA by the guanidinium thiocyanate method as described previously (Chomczynski and Sacchi, 1987). The isolated RNA was then treated with a DNA-free reagent (DNAse I; Ambion, Austin, Tex.) and submitted to the Microarray Core Facility at the University of Texas Health Science Center at San Antonio. Additional RNA sample aliquots were used as template for the quantitative real time RT-PCR experiments.
Microarray analysis: Target preparation, hybridization, staining, scanning and analysis of image: RNA samples derived from TG of OVX rats treated with a single dose (80 μg/kg per day) of E2 or vehicle (n=5 for each group) were prepared for hybridization to Affymetrix (Santa Clara, Calif.) RG-U34A arrays according to the manufacturer's instructions. Total RNA was used as a template for double-stranded cDNA synthesis (Superscript Double-Stranded cDNA Synthesis kit, Invitrogen, Carlsbad, Calif.), which was used as a template for biotin-labeled cRNA synthesis (Enzo BioArray High Yield RNA Transcription Labeling Kit, Affymetrix). Purified (RNeasy kit, Qiagen, Valencia, Calif.) labeled-cRNA was hybridized to the rat genomic RG-U34A GeneChips for 16 h at 45° C. Following hybridization, the probe arrays were washed and stained using the GeneChip Fluidics station protocol EukGE-ES2. The intensity of bound dye was measured with an argon laser confocal scanner (GeneArray Scanner, Agilent, Palo Alto, Calif.). The probe arrays were scanned twice and the stored images were aligned and analyzed using the GeneClip software Micro array Analysis Suite (MAS) 5.0 (Affymetrix, Santa Clara, Calif.). Data were imported into the GeneSpring 5.1 software (Silicon Genetics, Redwood City, Calif.) and a list of genes of relative expression of ≧1.5 and ≧0.5 fold was obtained. The data were imported into the R software package and the probe level data were converted to expression measures using the Affy package (Bolstad et al., 2003) from Bioconductor. Expression values for each mRNA were obtained by the Robust Multi-array Analysis (RMA) method as described elsewhere (Boistad et al., 2003).

The next data set relates to TG neurons. As to the kind of experiment: Patch clamp, capsaicin-induced currents (Icap). It is filed as cell-based, rat. As to the method:
Since application of PRL rapidly increases capsaicin-induced calcium accumulation and neuropeptide release, the role of PRL in modulating capsaicin-induced currents (Icap) was examined. TRPV1 desensitization of cultured TG neurons was induced through the repeated application of 100 nM capsaicin to the cultures (Vellani et al., 2001; Bonnington and McNaughton, 2003). The sub-maximal concentration of capsaicin used was effective in inducing desensitization and permitted the investigation PRL-evoked re-sensitization or further sensitization of TRPV1. […] Data are presented as mean±SEM of PRL-treated ΔIcap (3rd Icap-2^ndIcap) normalized to vehicle treated ΔIcap, (n=8-12/group, *=p<0.05 and **=p<0.01; two-way ANOVA). […] Acutely dissociated TG neurons from female rats were locally pretreated with vehicle or PRL (40 nM) for 60 sec, washed for 60 sec and subjected to a single capsaicin pulse (40 sec, 0.1 nM-5 μM). Data are shown as mean±SEM (n=12-20/group, *=p<0.05 and ***=p<0.001 vehicle vs. PRL; two-way ANOVA). FIGS. 5C and 5D depict representative traces of Icap recordings from intact (FIG. 5C) and OVX (FIG. 5D) female rat TG neurons. Concentration of applied CAP and PRL are indicated. The duration CAP and PRL treatment was 30 sec and 60 sec, respectively. The magnitude of the second capsaicin-evoked inward currents (Icap) peak was subtracted from the third Icap peak to calculate the difference (ΔIcap). Data were normalized to the vehicle treated ΔIcap.
Patch Clamp Electrophysiology: All recordings were performed in whole-cell voltage-clamp (Vh=−60 mV) configuration. Recordings were acquired at 22-24° C. from the somata of neurons (15-45 pF) using an Axopatch200B amplifier and pCLAMP9.0 software (Axon Instruments, Union City, Calif.). Data were filtered at 0.5 kHz and sampled at 2 kHz. Borosilicate pipettes (Sutter, Novato, Calif.) were polished to resistances of 3-5 MΩ in pipette solution. Access resistance was compensated (40-80%) to 7-10 MΩ values when appropriate. Cell diameters were calculated using d=√[100*Cm/π], where d (μm) is cell diameter and Cm (pF) is membrane capacitance.
Standard external solution (SES) had the composition as described above. […] Drugs were applied using a fast, computer controlled pressure-driven 8-channel system (ValveLink8; AutoMate Scientific, San Francisco, Calif.).
FIG. 11B summarizes the effect of adding rhPRL on Icap of cultured TG neurons from male, female and OVX female rats. Number of recorded neurons and neurons in which effects were observed are indicated above the bars. The recordings were performed in whole-cell voltage clamp c(Vh=−60 mV) configuration. Solutions are SES and SIS.
For orientation: The patch-clamp technique gives a direct electrical read-out from membranes.

With `C[C@]12CC[C@@H]3c4ccc(O)cc4CC[C@H]3[C@@H]1CC[C@@H]2O` [estradiol, 17-β-estradiol], in data set [1] (probe set AA958274_at), the “Trk A 3′ mRNA sequence expression, GS (change cut-off)” value is “≧1.5” and the “Trk A 3′ mRNA sequence expression, SAM” value is recorded as 1.5. In data set [1] (probe set AB002393_at), the “Histidine ammonia lyase expression, GS (change cut-off)” value is given as “≧1.5” and the “Histidine ammonia lyase expression, SAM” value stood at 1.5. Besides, in data set [1] (probe set AF050662UTR#1_at), the “Ania-10 early gene mRNA, 3′ UTR expression, GS (change cut-off)” value was “≧1.5” and the “Ania-10 early gene mRNA, 3′ UTR expression, SAM” value is listed as 1.6. Moreover, in data set [1] (probe set AF050664UTR#1_at), the “Ania-12 early gene mRNA, 3′ UTR expression, GS (change cut-off)” value is listed as “≧1.5” and the “Ania-12 early gene mRNA, 3′ UTR expression, SAM” value was 1.5. Besides, in data set [1] (probe set AF087674_at), the “Insulin receptor substrate 2 (IRS-2) mRNA expression, GS (change cut-off)” value was “≧1.5” and the “Insulin receptor substrate 2 (IRS-2) mRNA expression, SAM” value came out at 1.4. Moreover, the “Interleukin 1 alpha expression, GS (change cut-off)” value in data set [1] (probe set D00403_g_at) is recorded as “≧1.5”. In data set [1] (probe set D00403_g_at, false positive by RT-PCR), the “Interleukin 1 alpha expression, SAM” value is reported as 1.3. Also, in data set [1] (probe set D14097cds_s_at), the “Aldosterone synthase, exon 9 expression, GS (change cut-off)” value was “≧1.5” and the “Aldosterone synthase, exon 9 expression, SAM” value is given as 1.5. Further, in data set [1] (probe set D38381_s_at), the “Cytochrome P450, 3a18 expression, GS (change cut-off)” value was “≧1.5” and the “Cytochrome P450, 3a18 expression, SAM” value is given as 1.3. Besides, in data set [1] (probe set D49494cds_s_at), the “Prepro bone inducing protein expression, GS (change cut-off)” value was “≧1.5” and the “Prepro bone inducing protein expression, SAM” value stood at 1.3. In addition, in data set [1] (probe set E03166cds_s_at), the “Prolactin expression, GS (change cut-off)” value was “≧1.5” and the “Prolactin expression, SAM” value was 6.9. Further, in data set [1] (probe set M25801_g_at), the “Nuclear receptor subfamily 1, Group D, member 1 expression, GS (change cut-off)” value is reported as “≧1.5” and the “Nuclear receptor subfamily 1, Group D, member 1 expression, SAM” value is on record as 1.5. In addition, in data set [1] (probe set M31809_at), the “Protein phosphatase 3, catalytic subunit, beta isoform expression, GS (change cut-off)” value is reported as “≦1.5” and the “Protein phosphatase 3, catalytic subunit, beta isoform expression, SAM” value came to 0.6. Also, in data set [1] (probe set Rc_AA894174_at), the “Electron transf. flavoprotein (Etfa), mRNA expression, GS (change cut-off)” value is “≦1.5” and the “Electron transf. flavoprotein (Etfa), mRNA expression, SAM” value was found to be 0.7. For the same molecule, in data set [1] (probe set S69383_at), the “Arachidonate 12-lipoxygenase expression, GS (change cut-off)” value was “≦1.5” and the “Arachidonate 12-lipoxygenase expression, SAM” value is on record as 0.5. Further, in data set [1] (probe set V01244_at), the “Prolactin expression, GS (change cut-off)” value is on record as “≧1.5” and the “Prolactin expression, SAM” value is 12.8. Moreover, in data set [1] (probe set V01250cds_s_at), the “Prolactin expression, GS (change cut-off)” value is reported as “≧1.5” and the “Prolactin expression, SAM” value amounted to 3. Moreover, in data set [1] (probe set X54419cds_at), the “Interleukin 5 (colony-stimulating factor, eosinophil) expression, GS (change cut-off)” value was “≧1.5” and the “Interleukin 5 (colony-stimulating factor, eosinophil) expression, SAM” value stood at 1.3. For the same molecule, in data set [1] (probe set X60328_at), the “Cytosolic epoxide hydrolase expression, GS (change cut-off)” value is recorded as “≧1.5” and the “Cytosolic epoxide hydrolase expression, SAM” value is 1.7. For the same molecule, in data set [1] (probe set rc_AA859966_i_at), the “Similar to M. musculus pre 45S pre rRNA gene expression, GS (change cut-off)” value is “≧1.5” and the “Similar to M. musculus pre 45S pre rRNA gene expression, SAM” value is recorded as 4.1. Also, in data set [1] (probe set rc_AA945571_sat), the “Cytochrome P450, subfamily IIC6 expression, GS (change cut-off)” value is “≧1.5” and the “Cytochrome P450, subfamily IIC6 expression, SAM” value is listed as 1.7.

B1: PRL: Ovine PRL [oPRL-21, BIO] provided by NHPP; prolactin polypeptide hormone (protein, UniProt P01240 31-229, looked up)
Prolactin: TPVCPNGPGNCQVSLRDLFDRAVMVSHYIHNLSSEMFNEFDKRYAQGKGFITMALNSCHTSSLPTPEDKEQAQQTHHEVLMSLILGLLRSWNDPLYHLVTEVRGMKGVPDAILSRAIEIEEENKRLLEGMEMIFGQVIPGAKETEPYPVWSGLPSLQTKDEDARHSAFYNLLHCLRRDSSKIDTYLKLLNCRIIYNNNC
Turning to B1, the “effect of PRL pretreatment on capsaicin potency (Icap)” value with TG neurons (PRL 40 nM 60 sec, single capsaicin pulse 0.1 nM-5 μM, female rat TG neurons) is listed as “increased capsaicin potency”. Further, the “concentration of maximal potentiation of Icap” value in the data set with TG neurons (TRPV1-desensitized TG neurons from naive female rats, 100 nM capsaicin) is listed as 40 nM. Also, in the data set on TG neurons (TRPV1-desensitized TG neurons from naive female rats, 100 nM capsaicin, read-out: EC50 of Icap sensitization), the EC50 turned out to be 0.27 nM. The “effect on Icap” value with TG neurons (rat OVX TG neurons) was “had no observed effect”.
